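Dose response: 5 concentrations. Exposure: 48 h. Format: 96-well plates. Endpoint: linear interpolation; highest concentration if not reached. GI50 is the concentration that inhibits growth by half. TGI is the concentration that stops growth completely.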
What was measured:
Test in all cases: growth of human tumour cells (NCI), 48 h
[1] = test system: RXF 393 renal
[2] = test system: K-562 leukemia
[3] = test system: MDA-MB-435
[4] = test system: A498 renal
[5] = test system: DU-145 prostate
[6] = test system: OVCAR-3 ovarian
[7] = test system: 786-0 renal
[8] = test system: NCI-H226 lung
[9] = test system: NCI-H23 lung
[10] = test system: HCC-2998 colon
[11] = test system: MOLT-4 leukemia
[12] = test system: SW-620 colon
[13] = test system: UACC-257 melanoma
[14] = test system: SF-539 CNS
[15] = test system: SNB-75 CNS
[16] = test system: SK-MEL-2 melanoma
[17] = test system: OVCAR-8 ovarian
[18] = test system: UO-31 renal
[19] = test system: OVCAR-5 ovarian
[20] = test system: NCI/ADR-RES ovarian
[21] = test system: T-47D breast
[22] = test system: LOX IMVI melanoma
[23] = test system: SR leukemia
[24] = test system: SK-OV-3 ovarian
[25] = test system: EKVX NSCLC
[26] = test system: SF-268 CNS
[27] = test system: HOP-92 NSCLC
[28] = test system: UACC-62 melanoma
[29] = test system: MALME-3M melanoma
[30] = test system: U251 CNS
[31] = test system: IGROV1 ovarian
[32] = test system: NCI-H460 lung
[33] = test system: MDA-MB-231 breast
[34] = test system: A549 NSCLC
[35] = test system: CAKI-1 renal
[36] = test system: HL-60(TB) leukemia
[37] = test system: SK-MEL-5 melanoma
[38] = test system: HOP-62 NSCLC
[39] = test system: HS 578T breast
[40] = test system: SNB-19 CNS
[41] = test system: HT29 colon
[42] = test system: NCI-H522 lung
[43] = test system: BT-549 breast
[44] = test system: PC-3 prostate
[45] = test system: SK-MEL-28 melanoma
[46] = test system: M14 melanoma
[47] = test system: COLO 205 colon
[48] = test system: HCT-15 colon
[49] = test system: SN12C renal
[50] = test system: OVCAR-4 ovarian
[51] = test system: MCF7 breast
[52] = test system: ACHN renal
[53] = test system: CCRF-CEM leukemia
[54] = test system: TK-10 renal
[55] = test system: HCT-116 colon
[56] = test system: KM12 colon
[57] = test system: SF-295 CNS

COc1ccc(-c2cc(-c3ccccc3)nc(SCCCC(=O)NO)n2)cc1OC
GI50 [1]: 1010 nM | TGI [1]: 2780 nM | GI50 [2]: 812 nM | TGI [2]: > 100000 nM | GI50 [3]: 1740 nM | TGI [3]: 6280 nM | GI50 [4]: 345 nM | TGI [4]: 1720 nM | GI50 [5]: 1410 nM | TGI [5]: 6850 nM | GI50 [6]: 1320 nM | TGI [6]: 5360 nM | GI50 [7]: 1280 nM | TGI [7]: 5020 nM | GI50 [8]: 1690 nM | TGI [8]: 5540 nM | GI50 [9]: 1570 nM | TGI [9]: 4800 nM | GI50 [10]: 1440 nM | TGI [10]: 3590 nM | GI50 [11]: 832 nM | TGI [11]: 11400 nM | GI50 [12]: 539 nM | TGI [12]: 11300 nM | GI50 [13]: 1430 nM | TGI [13]: 7940 nM | GI50 [14]: 1350 nM | TGI [14]: 3380 nM | GI50 [15]: 1090 nM | TGI [15]: 4510 nM | GI50 [16]: 1760 nM | TGI [16]: 7390 nM | GI50 [17]: 490 nM | TGI [17]: 11900 nM | GI50 [18]: 338 nM | TGI [18]: 1480 nM | GI50 [19]: 1160 nM | TGI [19]: 5430 nM | GI50 [20]: 793 nM | TGI [20]: 4350 nM | GI50 [21]: 824 nM | TGI [21]: 9390 nM | GI50 [22]: 1070 nM | TGI [22]: 2440 nM | GI50 [23]: 339 nM | TGI [23]: 20400 nM | GI50 [24]: 1690 nM | TGI [24]: 5050 nM | GI50 [25]: 1180 nM | TGI [25]: 8600 nM | GI50 [26]: 2150 nM | TGI [26]: 5680 nM | GI50 [27]: 1140 nM | TGI [27]: 3990 nM | GI50 [28]: 1060 nM | TGI [28]: 3110 nM | GI50 [29]: 761 nM | TGI [29]: 5710 nM | GI50 [30]: 1510 nM | TGI [30]: 7690 nM | GI50 [31]: 1640 nM | TGI [31]: 5050 nM | GI50 [32]: 621 nM | TGI [32]: 9810 nM | GI50 [33]: 1560 nM | TGI [33]: 8270 nM | GI50 [34]: 2060 nM | TGI [34]: 7050 nM | GI50 [35]: 452 nM | TGI [35]: 2830 nM | GI50 [36]: 3240 nM | TGI [36]: 11700 nM | GI50 [37]: 631 nM | TGI [37]: 2090 nM | GI50 [38]: 626 nM | TGI [38]: 3380 nM | GI50 [39]: 1410 nM | TGI [39]: 9440 nM | GI50 [40]: 2290 nM | TGI [40]: 10900 nM | GI50 [41]: 2080 nM | TGI [41]: 7060 nM | GI50 [42]: 1320 nM | TGI [42]: 5360 nM | GI50 [43]: 3320 nM | TGI [43]: 12400 nM | GI50 [44]: 1390 nM | TGI [44]: 5620 nM | GI50 [45]: 1230 nM | TGI [45]: 3660 nM | GI50 [46]: 1020 nM | TGI [46]: 2820 nM | GI50 [47]: 2100 nM | TGI [47]: 5950 nM | GI50 [48]: 406 nM | TGI [48]: 2620 nM | GI50 [49]: 1540 nM | TGI [49]: 6150 nM | GI50 [50]: 1680 nM | TGI [50]: 7760 nM | GI50 [51]: 2300 nM | TGI [51]: 9630 nM | GI50 [52]: 410 nM | TGI [52]: 1810 nM | GI50 [53]: 398 nM | TGI [53]: 11100 nM | GI50 [54]: 409 nM | TGI [54]: 8870 nM | GI50 [55]: 701 nM | TGI [55]: 10000 nM | GI50 [56]: 2830 nM | TGI [56]: 11000 nM | GI50 [57]: 887 nM | TGI [57]: 2510 nM
